According to article PMC5845353, “The selective cathepsin K inhibitor MIV-711 attenuates joint pathology in experimental animal models of osteoarthritis” (Journal of Translational Medicine, 2018):

Assays:
[1] = test system: Knee OA patients; conditions: once daily treatment for 6 months; cited from earlier work
[2] = target: cathepsin K from human; design: method as in PMID 29743078; conditions: read-out: Ki against cathepsin K from human; cited from earlier work
[3] = test system: plasma proteins; assay: Fraction bound to plasma proteins, human; assay type: in vitro ADME
[4] = test system: CTX-II; assay: Urinary CTX-II in dogs subjected to partial medial meniscectomy; assay type: in vivo; conditions: dog, 30 µmol/kg
Experimental: Dogs subjected to partial medial meniscectomy received either 30 µmol/kg MIV-711 (synthesized by Medivir and given as a suspension in 1% Methocel A4C; n = 15) or vehicle (1% Methocel A4C; n = 15) by orogastric gavage once daily in the morning. […] Dosing started the day before surgery and lasted through Day 28, the day before necropsy. Each dog was fasted for at least 12 h before dosing and food were returned approximately 4 h following test article administration.
Urine samples were collected from the animals 1 to 3 days before surgery and treatment (baseline sample), 4 to 7 days after the start of treatment (Day 7 sample) and 26 to 28 days after treatment (Day 28 sample). Dogs were housed in metabolic cages overnight during urine collection. […]
In rabbits, conventional CTX-I assays to assess bone resorption cannot be used due to species differences. Instead, urinary helical peptide (HP-1) concentrations were measured in rabbits using the MicroVue Helical Peptide kit (Ref: 8022) from Quidel (San Diego, CA) according to the instructions supplied by the manufacturer. In dogs, urinary levels of C-terminal telopeptide of collagen type I (CTX-I) were measured using a commercially available kit (Urine BETA CrossLaps ELISA, Ref: AC-05F1, IDS Nordic Bioscience Diagnostics A/S). […] In dogs, CTX-II levels were also measured in synovial fluid. […]

C#C[C@@H]1CN(C(=O)[C@H](CC(C)C)NC(=O)c2ccc(-c3nc(N4CCN(C)CC4)sc3F)cc2)[C@@H]2C(=O)CO[C@H]12 [MIV-711]
benefit on joint structure by MRI compared to placebo [1]: significantly lower increases in bone area and cartilage thinning | Ki [2]: 0.98 nM | fraction bound to plasma proteins [3]: 94% | urinary CTX-II levels reduced by ([4]; Day 7, vs. baseline): 80% | urinary CTX-II levels reduced by ([4]; Day 28, vs. baseline): 80%
